The molecules below were run against His-tagged N-terminal ATP binding domain (amino acid residues 9-236) of HSP90α (Homo sapiens, UniProt P07900) (assay: HSP90 inhibitor binding potency: TRF competition binding assay). Settings: Table I; read-out: Hsp90 IC50 Range.
Summary of the method: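 Competition against biotinylated radicicol for binding to the His-tagged 9-236 ATP domain of HSP90α: 2 h, room temperature, HEPES/MgCl2/KCl/BSA buffer. Streptavidin capture, then europium-labeled anti-His antibody and enhancement solution; europium counts give IC50.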

| SMILES | IC50 [µM] |
| --- | --- |
| Cc1nc(N)nc2c1C(=O)CC(c1ccccc1-c1ncccn1)C2 (stereo not drawn) [Compound 32, 2-amino-4-methyl-7-(2-pyrimidin-2-ylphenyl)-7,8-dihydroquinazolin-5(6H)-one] | < 1 |
| COc1ccc(-c2ccccc2C2CC(=O)c3c(C)nc(N)nc3C2)cn1 (stereo not drawn) [Compound 74, 2-amino-7-[2-(6-methoxypyridin-3-yl)phenyl]-4-methyl-7,8-dihydroquinazolin-5(6H)-one] | 1 to 10 |
| Cc1nc(N)nc2c1C(=O)CC(c1ccccc1-c1ccccc1CO)C2 (stereo not drawn) [Compound 68, 2-amino-7-[2′-(hydroxymethyl)-1,1′-biphenyl-2-yl]-4-methyl-7,8-dihydroquinazolin-5(6H)-one] | < 1 |
| Cc1cccnc1-c1ccccc1C1CC(=O)c2c(C)nc(N)nc2C1 (stereo not drawn) [Compound 120, 2-amino-4-methyl-7-[2-(3-methylpyridin-2-yl)phenyl]-7,8-dihydroquinazolin-5(6H)-one] | 1 to 10 |
| Cc1nc(N)nc2c1C(=O)CC(c1ccccc1-c1c(C)noc1C)C2 (stereo not drawn) [Compound 59, 2-amino-7-[2-(3,5-dimethylisoxazol-4-yl)phenyl]-4-methyl-7,8-dihydroquinazolin-5(6H)-one] | 1 to 10 |
| Cc1nc(N)nc2c1C(=O)CC(c1ccccc1-c1ccncc1)C2 (stereo not drawn) [Compound 27, 2-amino-4-methyl-7-(2-pyridin-4-ylphenyl)-7,8-dihydroquinazolin-5(6H)-one] | 1 to 10 |
| Cc1nc(N)nc2c1C(=O)CC(c1ccccc1C1CCCCC1)C2 (stereo not drawn) [Compound 171, 2-amino-7-(2-cyclohexylphenyl)-4-methyl-7,8-dihydroquinazolin-5(6H)-one] | < 1 |
| Cc1nc(N)nc2c1C(=O)CC(c1ccccc1Oc1cnccn1)C2 (stereo not drawn) [Compound 143, 2-amino-4-methyl-7-[2-(pyrazin-2-yloxy)phenyl]-7,8-dihydroquinazolin-5(6H)-one] | < 1 |
| Cc1nc(N)nc2c1C(=O)CC(c1ccccc1S(=O)(=O)c1ccccc1)C2 (stereo not drawn) [Compound 23, 2-amino-7-(2-benzenesulfonyl-phenyl)-4-methyl-7,8-dihydro-6H-quinazolin-5-one] | > 10 |
| COc1ccc(-c2cccnc2Cl)c(C2CC(=O)c3c(C)nc(N)nc3C2)c1 (stereo not drawn) [Compound 108, 2-amino-7-[2-(2-chloropyridin-3-yl)-5-methoxyphenyl]-4-methyl-7,8-dihydroquinazolin-5(6H)-one] | < 1 |
| Cc1nc(N)nc2c1C(=O)CC(c1cc(F)ccc1-c1cccnc1F)C2 (stereo not drawn) [Compound 88, 2-amino-7-[5-fluoro-2-(2-fluoropyridin-3-yl)phenyl]-4-methyl-7,8-dihydroquinazolin-5(6H)-one] | < 1 |
| CCOc1cccc(-c2cccnc2F)c1C1CC(=O)c2c(C)nc(N)nc2C1 (stereo not drawn) [Compound 151, 2-amino-7-[2-ethoxy-6-(2-fluoro-pyridin-3-yl)-phenyl]-4-methyl-7,8-dihydro-6H-quinazolin-5-one] | < 1 |
| Cc1nc(N)nc2c1C(=O)CC(c1ccccc1Oc1ccccc1F)C2 (stereo not drawn) [Compound 138, 2-amino-7-[2-(2-fluorophenoxy)phenyl]-4-methyl-7,8-dihydroquinazolin-5(6H)-one] | < 1 |
| COC(=O)c1cccc(-c2ccccc2C2CC(=O)c3c(C)nc(N)nc3C2)c1 (stereo not drawn) [Compound 104, methyl 2′-(2-amino-4-methyl-5-oxo-5,6,7,8-tetrahydroquinazolin-7-yl)-1,1′-biphenyl-3-carboxylate] | > 10 |
| CC(=O)c1cccc(-c2ccccc2C2CC(=O)c3c(C)nc(N)nc3C2)n1 (stereo not drawn) [Compound 92, 7-[2-(6-acetylpyridin-2-yl)phenyl]-2-amino-4-methyl-7,8-dihydroquinazolin-5(6H)-one] | 1 to 10 |
| Cc1nc(N)nc2c1C(=O)CC(c1ccccc1-c1ccccn1)C2 (stereo not drawn) [Compound 25, 2-amino-4-methyl-7-(2-pyridin-2-ylphenyl)-7,8-dihydroquinazolin-5(6H)-one] | < 1 |
| Cc1nc(N)nc2c1C(=O)CC(c1ccccc1-c1cn[nH]c1)C2 (stereo not drawn) [Compound 39, 2-amino-4-methyl-7-[2-(1H-pyrazol-4-yl)phenyl]-7,8-dihydroquinazolin-5(6H)-one] | 1 to 10 |
| Cc1nc(N)nc2c1C(=O)CC(c1ccccc1OC(C)C)C2 (stereo not drawn) [Compound 149, 2-amino-7-(2-isopropoxy-phenyl)-4-methyl-7,8-dihydro-6H-quinazolin-5-one] | < 1 |
| Cc1nc(N)nc2c1C(=O)CC(c1ccccc1-c1cnccn1)C2 (stereo not drawn) [Compound 31, 2-amino-4-methyl-7-(2-pyrazin-2-ylphenyl)-7,8-dihydroquinazolin-5(6H)-one] | < 1 |

Same assay, conditions: Table II; read-out: Hsp90 IC50 Range

| SMILES | IC50 [µM] |
| --- | --- |
| COc1cccc(-c2cccc(F)c2C2CC(=O)c3c(C)nc(N)nc3C2)n1 (stereo not drawn) [Compound 220, 2-amino-7-[2-fluoro-6-(6-methoxy-pyridin-2-yl)-phenyl]-4-methyl-7,8-dihydro-6H-quinazolin-5-one] | < 1 |
| COc1cccc(-c2cc(F)ccc2[C@@H]2CC(=O)c3c(C)nc(N)nc3C2)n1 [Compound 261, (S)-2-amino-7-[4-fluoro-2-(6-methoxy-pyridin-2-yl)-phenyl]-4-methyl-7,8-dihydro-6H-quinazolin-5-one] | < 1 |
| Cc1nc(N)nc2c1C(=O)CC(c1ncsc1-c1cc(F)ccc1F)C2 (stereo not drawn) [Compound 292, 2-amino-7-[5-(2,5-difluoro-phenyl)-thiazol-4-yl]-4-methyl-7,8-dihydro-6H-quinazolin-5-one] | < 1 |
| COc1cccc(-n2ccnc2[C@@H]2CC(=O)c3c(C)nc(N)nc3C2)n1 [Compound 204, (S)-2-amino-7-[1-(6-methoxy-pyridin-2-yl)-1H-imidazol-2-yl]-4-methyl-7,8-dihydro-6H-quinazolin-5-one] | < 1 |
| COc1nc(-n2ccnc2C2CC(=O)c3c(C)nc(N)nc3C2)ncc1C (stereo not drawn) [Compound 206, 2-amino-7-[1-(4-methoxy-5-methyl-pyrimidin-2-yl)-1H-imidazol-2-yl]-4-methyl-7,8-dihydro-6H-quinazolin-5-one] | < 1 |
| Cc1nc(N)nc2c1C(=O)CC(c1nccn1-c1ccc(Cl)cc1F)C2 (stereo not drawn) [Compound 328, 2-amino-7-[1-(4-chloro-2-fluoro-phenyl)-1H-imidazol-2-yl]-4-methyl-7,8-dihydro-6H-quinazolin-5-one] | 1 to 10 |
| CNc1cncc(-c2cc(F)ccc2C2CC(=O)c3c(C)nc(N)nc3C2)n1 (stereo not drawn) [Compound 296, 2-amino-7-[4-fluoro-2-(6-methylamino-pyrazin-2-yl)-phenyl]-4-methyl-7,8-dihydro-6H-quinazolin-5-one] | < 1 |
| CCc1nc(N)nc2c1C(=O)CC(c1ccc(F)cc1-c1cccnc1)C2 (stereo not drawn) [Compound 318, 2-amino-4-ethyl-7-(4-fluoro-2-pyridin-3-yl-phenyl)-7,8-dihydro-6H-quinazolin-5-one] | < 1 |
| COc1cccc(-c2scnc2[C@H]2CC(=O)c3c(C)nc(N)nc3C2)n1 [Compound 297, (R)-2-amino-7-[5-(6-methoxy-pyridin-2-yl)-thiazol-4-yl]-4-methyl-7,8-dihydro-6H-quinazolin-5-one] | 1 to 10 |
| COc1nc(-c2cc(F)ccc2[C@@H]2CC(=O)c3c(C)nc(N)nc3C2)cnc1C [Compound 332, (S)-2-amino-7-[4-fluoro-2-(6-methoxy-5-methyl-pyrazin-2-yl)-phenyl]-4-methyl-7,8-dihydro-6H-quinazolin-5-one] | < 1 |
| CCc1nc(N)nc2c1C(=O)CC(c1ccc(F)cc1-c1cccnc1F)C2 (stereo not drawn) [Compound 319, 2-amino-4-ethyl-7-[4-fluoro-2-(2-fluoro-pyridin-3-yl)-phenyl]-7,8-dihydro-6H-quinazolin-5-one] | 1 to 10 |
| COc1nc(-c2cc(F)ccc2C2CC(=O)c3c(C)nc(N)nc3C2)ncc1Cl (stereo not drawn) [Compound 272, 2-amino-7-[2-(5-chloro-4-methoxy-pyrimidin-2-yl)-4-fluoro-phenyl]-4-methyl-7,8-dihydro-6H-quinazolin-5-one] | < 1 |
| COc1nc(-c2cc(F)ccc2C2CC(=O)c3c(C)nc(N)nc3C2)ncc1C (stereo not drawn) [Compound 259, 2-amino-7-[4-fluoro-2-(4-methoxy-5-methyl-pyrimidin-2-yl)-phenyl]-4-methyl-7,8-dihydro-6H-quinazolin-5-one] | < 1 |
| COc1ccc(F)c(-c2cc(F)ccc2[C@@H]2CC(=O)c3c(C)nc(N)nc3C2)n1 [Compound 313, (S)-2-amino-7-[4-fluoro-2-(3-fluoro-6-methoxy-pyridin-2-yl)-phenyl]-4-methyl-7,8-dihydro-6H-quinazolin-5-one] | < 1 |
| COc1nc(-c2cc(F)ccc2C2CC(=O)c3c(C)nc(N)nc3C2)ncc1F (stereo not drawn) [Compound 224, 2-amino-7-[4-fluoro-2-(5-fluoro-4-methoxy-pyrimidin-2-yl)-phenyl]-4-methyl-7,8-dihydro-6H-quinazolin-5-one] | < 1 |
| COc1cncc(-c2ccc(F)cc2C2CC(=O)c3c(C)nc(N)nc3C2)n1 (stereo not drawn) [Compound 286, 2-amino-7-[5-fluoro-2-(6-methoxy-pyrazin-2-yl)-phenyl]-4-methyl-7,8-dihydro-6H-quinazolin-5-one] | 1 to 10 |
| Cc1nc(N)nc2c1C(=O)CC(c1ccc(F)cc1-c1cncc(Cl)n1)C2 (stereo not drawn) [Compound 219, 2-amino-7-[2-(6-chloro-pyrazin-2-yl)-4-fluoro-phenyl]-4-methyl-7,8-dihydro-6H-quinazolin-5-one] | < 1 |
| CNc1cccc(-c2cc(F)ccc2C2CC(=O)c3c(C)nc(N)nc3C2)n1 (stereo not drawn) [Compound 295, 2-amino-7-[4-fluoro-2-(6-methylamino-pyridin-2-yl)-phenyl]-4-methyl-7,8-dihydro-6H-quinazolin-5-one] | 1 to 10 |
| CCc1nc(N)nc2c1C(=O)CC(c1ccc(F)cc1-c1ccccc1OC)C2 (stereo not drawn) [Compound 321, 2-amino-4-ethyl-7-(5-fluoro-2′-methoxy-biphenyl-2-yl)-7,8-dihydro-6H-quinazolin-5-one] | 1 to 10 |
| Nc1ncc2c(n1)CC(c1ccccc1Br)CC2=O (stereo not drawn) [Compound 244, 2-amino-7-(2-bromo-phenyl)-7,8-dihydro-6H-quinazolin-5-one] | > 10 |
